The target of one test is T1, BuSGBP-B (Bacteroides uniformis, UniProt A0ABC9NE57).
T1 construct: gene BACUNI_01487; signal peptide and lipidation Cys excluded; N-terminal His6 or His6-GST tag (pMCSG53 or pMCSG-GST); E. coli BL21(DE3)
T1 sequence (A0ABC9NE57 22-457): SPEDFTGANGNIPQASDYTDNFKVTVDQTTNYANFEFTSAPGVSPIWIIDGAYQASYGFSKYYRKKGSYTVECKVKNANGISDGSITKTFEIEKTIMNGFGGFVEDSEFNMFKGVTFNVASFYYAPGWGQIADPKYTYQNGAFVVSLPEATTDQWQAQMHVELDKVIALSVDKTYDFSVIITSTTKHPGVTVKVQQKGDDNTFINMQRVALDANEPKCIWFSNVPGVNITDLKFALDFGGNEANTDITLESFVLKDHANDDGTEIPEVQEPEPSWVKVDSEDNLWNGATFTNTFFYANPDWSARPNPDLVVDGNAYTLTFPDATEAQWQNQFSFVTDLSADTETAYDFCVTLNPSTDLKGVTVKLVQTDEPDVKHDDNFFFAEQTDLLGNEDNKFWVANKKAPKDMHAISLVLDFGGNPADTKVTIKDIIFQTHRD
The test can be described thus: isothermal titration calorimetry. Type of test: binding. The following applies: 25 °C; single-site model.

Test [1] has as its target T2, BuGH3 (Bacteroides uniformis, UniProt A0ABC9NEJ2).
T2 construct: gene BACUNI_01484; signal peptide and lipidation Cys excluded; N-terminal His6 tag (pET28a); E. coli BL21(DE3)
T2 sequence (A0ABC9NEJ2 20-750): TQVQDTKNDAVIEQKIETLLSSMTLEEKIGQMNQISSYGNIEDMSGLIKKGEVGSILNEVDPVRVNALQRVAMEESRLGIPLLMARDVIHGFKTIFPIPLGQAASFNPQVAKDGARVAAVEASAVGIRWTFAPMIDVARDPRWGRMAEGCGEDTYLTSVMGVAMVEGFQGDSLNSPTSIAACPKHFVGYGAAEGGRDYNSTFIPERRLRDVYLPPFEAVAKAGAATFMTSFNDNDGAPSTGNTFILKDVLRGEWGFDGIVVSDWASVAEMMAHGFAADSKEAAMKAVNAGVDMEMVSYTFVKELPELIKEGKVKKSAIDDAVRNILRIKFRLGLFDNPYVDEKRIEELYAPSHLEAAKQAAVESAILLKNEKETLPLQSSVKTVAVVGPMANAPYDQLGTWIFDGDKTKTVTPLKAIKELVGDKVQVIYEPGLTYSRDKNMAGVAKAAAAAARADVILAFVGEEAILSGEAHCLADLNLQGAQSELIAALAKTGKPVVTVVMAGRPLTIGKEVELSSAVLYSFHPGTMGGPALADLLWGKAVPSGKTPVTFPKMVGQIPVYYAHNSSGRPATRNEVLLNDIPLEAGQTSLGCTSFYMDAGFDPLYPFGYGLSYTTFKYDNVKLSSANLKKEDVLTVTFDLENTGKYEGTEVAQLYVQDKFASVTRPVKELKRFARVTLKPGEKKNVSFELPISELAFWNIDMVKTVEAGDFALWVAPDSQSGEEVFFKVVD
Kind of test: continuous glucose release assay (hexokinase kit). Type of test: biochemical. As to conditions: oligosaccharide hydrolysis, exo-acting.

The target of a further test is T3, BuGH158 (Bacteroides uniformis, UniProt A0ABC9NDZ5).
T3 construct: gene BACUNI_01485; signal peptide and lipidation Cys excluded; N-terminal His6 tag (pMCSG53); E. coli BL21(DE3)
T3 sequence (A0ABC9NDZ5 19-429 limits assumed): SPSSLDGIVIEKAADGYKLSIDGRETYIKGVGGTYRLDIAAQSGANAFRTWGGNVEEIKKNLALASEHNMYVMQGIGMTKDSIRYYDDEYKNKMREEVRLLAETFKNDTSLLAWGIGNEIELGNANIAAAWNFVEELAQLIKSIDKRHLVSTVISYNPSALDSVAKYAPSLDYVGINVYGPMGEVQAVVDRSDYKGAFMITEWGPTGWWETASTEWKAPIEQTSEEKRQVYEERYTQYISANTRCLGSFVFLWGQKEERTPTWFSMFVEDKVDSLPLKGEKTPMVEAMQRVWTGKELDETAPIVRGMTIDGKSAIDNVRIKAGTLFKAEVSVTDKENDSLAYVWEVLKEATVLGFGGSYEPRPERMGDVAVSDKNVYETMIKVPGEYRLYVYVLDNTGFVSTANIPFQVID
The test can be described thus: 1H-NMR of hydrolysis (anomer stereochemistry). It is filed as biochemical. As to conditions: 50 mM sodium phosphate pH 7.0 in D2O; 20 μM enzyme, 10 mM substrate; retaining.

The target in test [2] is T2, BuGH3. The test can be described thus: continuous glucose release assay (hexokinase kit). Type of test: biochemical. As to conditions: oligosaccharide hydrolysis, exo-acting. This is another data set of the same source.

The values below come from paper PMC7157763, “Synergy between Cell Surface Glycosidases and Glycan-Binding Proteins Dictates the Utilization of Specific Beta(1,3)-Glucans by Human Gut Bacteroides” (mBio, 2020).

Molecules are shown by their SMILES.

Regarding `OC[C@H]1O[C@@H](O[C@@H]2[C@@H](O)[C@H](O[C@@H]3[C@@H](O)[C@H](O[C@@H]4[C@@H](O)[C@H](O[C@H]5[C@H](O)[C@@H](CO)OC(O)[C@@H]5O)O[C@H](CO)[C@H]4O)O[C@H](CO)[C@H]3O)O[C@H](CO)[C@H]2O)[C@H](O)[C@@H](O)[C@@H]1O` (stereo partly shown) [G3G3G3G3G, laminaripentaose], the Ka entry at BuSGBP-B is listed as “affinity increased with degree of polymerization”. At BuGH3 [1], the Km entry is recorded as “after which Km values leveled off”.
Turning to `OC[C@H]1O[C@@H](O[C@@H]2[C@@H](O)[C@H](O[C@H]3[C@H](O)[C@@H](CO)OC(O)[C@@H]3O)O[C@H](CO)[C@H]2O)[C@H](O)[C@@H](O)[C@@H]1O` (stereo partly shown) [G3G3G, laminaritriose], the Ka entry at BuSGBP-B is “The smallest laminari-oligosaccharide bound by BuSGBP-B was the trisaccharide (G3G3G)”. Moreover, the Km entry at BuGH3 [1] is “Km values decreased between the di- and trisaccharide”.
For `O=[N+]([O-])c1ccc(O[C@@H]2O[C@H](CO)[C@@H](O)[C@H](O[C@@H]3O[C@H](CO)[C@@H](O)[C@H](O)[C@H]3O)[C@H]2O)c(Cl)c1` [G3G-CNP, 2-chloro-4-nitrophenyl laminaribioside], at BuGH158, the “1H-NMR of hydrolysis (anomer stereochemistry)” value is “NMR analysis of the hydrolysis of 2-chloro-4-nitrophenyl laminaribioside (G3G-CNP)”.
Consider `OC[C@H]1O[C@@H](O[C@@H]2[C@@H](O)[C@H](O[C@@H]3[C@@H](O)[C@H](O[C@H]4[C@H](O)[C@@H](CO)OC(O)[C@@H]4O)O[C@H](CO)[C@H]3O)O[C@H](CO)[C@H]2O)[C@H](O)[C@@H](O)[C@@H]1O` (stereo partly shown) [G3G3G3G, laminaritetraose], for which, at BuSGBP-B, the Ka entry is on record as “affinity increased with degree of polymerization”. The Km entry on BuGH3 [1] is on record as “after which Km values leveled off”.
For the compound `OC[C@H]1O[C@@H](O[C@H]2[C@H](O)[C@@H](O)C(O)O[C@@H]2CO)[C@H](O)[C@@H](O)[C@@H]1O` (stereo partly shown) [G4G, cellobiose], on BuGH3 [2], the kcat/Km result is “kcat/Km value for laminaribiose (G3G) over cellobiose (G4G) and gentiobiose (G6G)”.
In the case of `OC[C@H]1O[C@@H](O[C@H]2[C@H](O)[C@@H](CO)OC(O)[C@@H]2O)[C@H](O)[C@@H](O)[C@@H]1O` (stereo partly shown) [G3G, laminaribiose], the Km result on BuGH3 [1] was “Km values decreased between the di- and trisaccharide”.
With `OC[C@H]1O[C@@H](OC[C@H]2OC(O)[C@H](O)[C@@H](O)[C@@H]2O)[C@H](O)[C@@H](O)[C@@H]1O` (stereo partly shown) [G6G, gentiobiose], at BuGH3 [2], the kcat/Km entry was “kcat/Km value for laminaribiose (G3G) over cellobiose (G4G) and gentiobiose (G6G)”.
